Target: LONP1 (NM_004793.4) (Homo sapiens (Human), UniProt P36776)
Experiment: LONP1 FRET-based protease activity assay (fluorogenic peptide substrate)
Assay type: biochemical
Conditions: LONP1 15 nM, substrate 3 μM, 15 min preincubation, 1 hour at 37° C.; average of a minimum of two repeats
Experimental: Inhibition of LONP1 protease activity by an inhibitor compound of the disclosure elicits a decrease in the fluorescent signal.
The LONP1-containing mix (10 μL) was incubated with the test compound for 15 min at 37° C. before adding the peptide-containing mix (5 μL). Solutions were dispensed using a small cassette-Multidrop Combi (Thermo Scientific).
Each value is based on an average of a minimum of two repeats.

LONP1 (NM_004793.4), sequence (P36776 68-959): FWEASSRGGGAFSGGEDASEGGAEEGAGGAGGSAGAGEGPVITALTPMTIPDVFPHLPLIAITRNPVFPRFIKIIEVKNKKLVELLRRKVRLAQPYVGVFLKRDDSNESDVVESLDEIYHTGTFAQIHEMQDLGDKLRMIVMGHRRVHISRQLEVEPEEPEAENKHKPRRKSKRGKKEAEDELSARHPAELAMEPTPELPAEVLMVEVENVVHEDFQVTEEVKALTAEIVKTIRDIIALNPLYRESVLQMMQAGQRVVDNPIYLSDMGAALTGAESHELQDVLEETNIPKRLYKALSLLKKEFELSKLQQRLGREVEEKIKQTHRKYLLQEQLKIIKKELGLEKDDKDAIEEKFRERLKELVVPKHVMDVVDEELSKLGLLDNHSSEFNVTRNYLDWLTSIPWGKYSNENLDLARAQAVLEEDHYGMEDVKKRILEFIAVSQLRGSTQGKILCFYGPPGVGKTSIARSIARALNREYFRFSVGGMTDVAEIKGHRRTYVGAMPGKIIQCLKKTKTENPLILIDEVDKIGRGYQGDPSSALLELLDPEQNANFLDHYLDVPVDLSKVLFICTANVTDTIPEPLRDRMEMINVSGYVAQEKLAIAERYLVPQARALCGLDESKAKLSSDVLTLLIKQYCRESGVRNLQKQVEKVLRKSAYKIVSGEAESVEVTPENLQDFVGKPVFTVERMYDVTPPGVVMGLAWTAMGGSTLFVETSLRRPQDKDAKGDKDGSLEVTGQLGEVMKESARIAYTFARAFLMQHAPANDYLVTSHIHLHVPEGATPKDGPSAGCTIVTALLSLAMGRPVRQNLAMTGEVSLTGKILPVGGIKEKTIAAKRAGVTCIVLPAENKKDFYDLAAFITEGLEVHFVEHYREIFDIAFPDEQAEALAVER

Structure (SMILES) | IC50 [nM]
O=C(C[C@@H](NC(=O)c1cnccn1)C(=O)N[C@@H](CCCc1ccccc1)B(O)O)c1ccccc1 [Compound 3, ((1R)-1-(4-oxo-4-phenyl-2-(pyrazine-2-carboxamido)butanamido)-4-phenylbutyl)boronic acid] | < 50
CC(C)C[C@H](NC(=O)[C@@H](CC(=O)N1CCOCC1)NC(=O)c1cnccn1)B(O)O [Compound 4, ((R)-3-methyl-1-((R)-4-morpholino-4-oxo-2-(pyrazine-2-carboxamido)butanamido)butyl)boronic acid] | < 50
O=C(N[C@H](CC(=O)N1CCOCC1)C(=O)N[C@@H](CCc1ccccc1)B(O)O)c1cnccn1 [Compound 5, ((R)-1-((R)-4-morpholino-4-oxo-2-(pyrazine-2-carboxamido)butanamido)-3-phenylpropyl)boronic acid] | < 50
CCCC[C@H](NC(=O)[C@@H](CC(=O)N1CCOCC1)NC(=O)c1cnccn1)B(O)O [Compound 6, ((R)-1-((R)-4-morpholino-4-oxo-2-(pyrazine-2-carboxamido)butanamido)pentyl)boronic acid] | < 50
Cc1nc(C)c(C(=O)N[C@H](CC(=O)N2CCOCC2)C(=O)N[C@@H](CC(C)C)B(O)O)o1 [Compound 7, ((R)-1-((R)-2-(2,4-dimethyloxazole-5-carboxamido)-4-morpholino-4-oxobutanamido)-3-methylbutyl)boronic acid] | < 50
CN(C)C(=O)C[C@@H](NC(=O)c1cnccn1)C(=O)N[C@@H](CCCc1ccccc1)B(O)O [Compound 8, ((R)-1-((R)-4-(dimethylamino)-4-oxo-2-(pyrazine-2-carboxamido)butanamido)-4-phenylbutyl)boronic acid] | < 50
CCNC(=O)C[C@@H](NC(=O)c1cnccn1)C(=O)N[C@@H](CCCc1ccccc1)B(O)O [Compound 9, ((R)-1-((R)-4-(ethylamino)-4-oxo-2-(pyrazine-2-carboxamido)butanamido)-4-phenylbutyl)boronic acid] | < 50
NC(=O)C[C@@H](NC(=O)c1cnccn1)C(=O)N[C@@H](CCCc1ccccc1)B(O)O [Compound 10, ((R)-1-((R)-4-amino-4-oxo-2-(pyrazine-2-carboxamido)butanamido)-4-phenylbutyl)boronic acid] | < 50
O=C(N[C@H](CC(=O)N1CCCCC1)C(=O)N[C@@H](CCCc1ccccc1)B(O)O)c1cnccn1 [Compound 11, ((R)-1-((R)-4-oxo-4-(piperidin-1-yl)-2-(pyrazine-2-carboxamido)butanamido)-4-phenylbutyl)boronic acid] | < 50
CC(=O)N[C@H](CC(=O)N1CCOCC1)C(=O)N[C@@H](CCCc1ccccc1)B(O)O [Compound 19, ((R)-1-((R)-2-acetamido-4-morpholino-4-oxobutanamido)-4-phenylbutyl)boronic acid] | < 50
O=C(N[C@@H](CCCc1ccccc1)B(O)O)[C@@H](CC(=O)N1CCOCC1)NC(=O)N1CCOCC1 [Compound 20, ((R)-1-((R)-2-(morpholine-4-carboxamido)-4-morpholino-4-oxobutanamido)-4-phenylbutyl)boronic acid] | < 50
CC(C)(C)OC(=O)N[C@H](CC(=O)N1CCOCC1)C(=O)N[C@@H](CCCc1ccccc1)B(O)O [Compound 21, ((R)-1-((R)-2-((tert-butoxycarbonyl)amino)-4-morpholino-4-oxobutanamido)-4-phenylbutyl)boronic acid] | < 50
CC(C)(C)NC(=O)N[C@H](CC(=O)N1CCOCC1)C(=O)N[C@@H](CCCc1ccccc1)B(O)O [Compound 22, ((R)-1-((R)-2-(3-(tert-butyl)ureido)-4-morpholino-4-oxobutanamido)-4-phenylbutyl)boronic acid] | 50 to 500
O=C(N[C@H](CCC(=O)N1CCOCC1)C(=O)N[C@@H](CCCc1ccccc1)B(O)O)c1cnccn1 [Compound 23, ((R)-1-((R)-5-morpholino-5-oxo-2-(pyrazine-2-carboxamido)pentanamido)-4-phenylbutyl)boronic acid] | < 50
CN(C)S(=O)(=O)C[C@@H](NC(=O)c1cnccn1)C(=O)N[C@@H](CCCc1ccccc1)B(O)O [Compound 27, ((R)-1-((S)-3-(N,N-dimethylsulfamoyl)-2-(pyrazine-2-carboxamido)propanamido)-4-phenylbutyl)boronic acid] | < 50
O=C(N[C@H](COc1ccccn1)C(=O)N[C@@H](CCCc1ccccc1)B(O)O)c1cnccn1 [Compound 29, ((R)-4-phenyl-1-((R)-2-(pyrazine-2-carboxamido)-3-(pyridin-2-yloxy)propanamido)butyl)boronic acid] | < 50
CCC[C@H](NC(=O)[C@@H](CC(=O)N1CCOCC1)NC(=O)c1cnccn1)B(O)O [Compound 31, ((R)-1-((R)-4-morpholino-4-oxo-2-(pyrazine-2-carboxamido)butanamido)butyl)boronic acid] | < 50

Continued, values first:

IC50 [nM] | Structure (SMILES)
< 50 | O=C(N[C@H](CC(=O)N1CCOCC1)C(=O)NC(CCCc1ccccc1)B(O)O)C1CCCCC1 (stereo in doubt) [Compound 41, ((R)-1-((R)-2-(cyclohexanecarboxamido)-4-morpholino-4-oxobutanamido)-4-phenylbutyl)boronic acid]
< 50 | O=C(N[C@H](CC(=O)N1CCOCC1)C(=O)NC(CCCc1ccccc1)B(O)O)C1CCOCC1 (stereo in doubt) [Compound 42, ((R)-1-((R)-4-morpholino-4-oxo-2-(tetrahydro-2H-pyran-4-carboxamido)butanamido)-4-phenylbutyl)boronic acid]
> 5000 | O=C(NC(CC(=O)N1CCOCC1)C(=O)N[C@@H](Cc1ccccc1)B(O)O)c1cnccn1 (stereo in doubt) [Compound 47, ((R)-1-((R)-4-morpholino-4-oxo-2-(pyrazine-2-carboxamido)butanamido)-2-phenylethyl)boronic acid]
< 50 | CC[C@H](NC(=O)[C@@H](CC(=O)N1CCOCC1)NC(=O)c1cnccn1)B(O)O [Compound 32, ((R)-1-((R)-4-morpholino-4-oxo-2-(pyrazine-2-carboxamido)butanamido)propyl)boronic acid]
< 50 | CN(C)C(=O)N[C@H](CC(=O)N1CCOCC1)C(=O)N[C@@H](CCCc1ccccc1)B(O)O [Compound 33, ((R)-1-((R)-2-(3,3-dimethylureido)-4-morpholino-4-oxobutanamido)-4-phenylbutyl)boronic acid]
< 50 | CS(=O)(=O)CC[C@@H](NC(=O)c1cnccn1)C(=O)N[C@@H](CCCc1ccccc1)B(O)O [Compound 35, ((R)-1-((R)-4-(methylsulfonyl)-2-(pyrazine-2-carboxamido)butanamido)-4-phenylbutyl)boronic acid]
< 50 | COC[C@@H](NC(=O)c1cnccn1)C(=O)N[C@@H](CCCc1ccccc1)B(O)O [Compound 37, ((R)-1-((R)-3-methoxy-2-(pyrazine-2-carboxamido)propanamido)-4-phenylbutyl)boronic acid]
< 50 | COC[C@@H](NC(=O)c1cnccn1)C(=O)N[C@@H](COCc1ccccc1)B(O)O [Compound 38, ((R)-2-(benzyloxy)-1-((R)-3-methoxy-2-(pyrazine-2-carboxamido)propanamido)ethyl)boronic acid]
< 50 | CCC[C@@H](NC(=O)c1cnccn1)C(=O)N[C@@H](COCc1ccccc1)B(O)O [Compound 39, ((R)-2-(benzyloxy)-1-((R)-2-(pyrazine-2-carboxamido)pentanamido)ethyl)boronic acid]
< 50 | O=C(N[C@@H](CCCc1ccccc1)B(O)O)[C@@H](CC(=O)N1CCOCC1)NS(=O)(=O)c1ccccc1 [Compound 43, ((R)-1-((R)-4-morpholino-4-oxo-2-(phenylsulfonamido)butanamido)-4-phenylbutyl)boronic acid]
< 50 | O=C(N[C@H](CC(=O)N1CCOCC1)C(=O)N[C@@H](CCCc1ccccc1)B(O)O)C1CCCCO1 (stereo partly drawn) [Compound 44, ((1R)-1-((2R)-4-morpholino-4-oxo-2-(tetrahydro-2H-pyran-2-carboxamido)butanamido)-4-phenylbutyl)boronic acid]
< 50 | COC[C@@H](NC(=O)c1ccccc1)C(=O)N[C@@H](CCCc1ccccc1)B(O)O [Compound 48, ((R)-1-((R)-2-benzamido-3-methoxypropanamido)-4-phenylbutyl)boronic acid]
< 50 | COC[C@@H](NC(=O)c1cccc(OC)n1)C(=O)N[C@@H](CCCc1ccccc1)B(O)O [Compound 50, ((R)-1-((R)-3-methoxy-2-(6-methoxypicolinamido)propanamido)-4-phenylbutyl)boronic acid]
50 to 500 | CCC[C@H](C(=O)N[C@@H](CCCc1ccccc1)B(O)O)N(C)C(=O)c1cnccn1 [Compound 51, ((R)-1-((R)-2-(N-methylpyrazine-2-carboxamido)pentanamido)-4-phenylbutyl)boronic acid]
50 to 500 | CCC[C@H](C(=O)N(C)[C@@H](CCCc1ccccc1)B(O)O)N(C)C(=O)c1cnccn1 [Compound 52, ((R)-1-((R)—N-methyl-2-(N-methylpyrazine-2-carboxamido)pentanamido)-4-phenylbutyl)boronic acid]

— US20250059213A1, “LONP1 INHIBITORS, USES AND METHODS” (Pretzel Therapeutics, Inc., priority 2021, published 2025)
